Experiment [1] deals with breast cancer cells. As to the kind of experiment: Drug sensitivity of breast cancer cells after down regulation of Tau by siRNA. It counts as cell-based. The settings on record: cancer cells in vitro. An excerpt: Low expression of Tau is associated with known clinicopathological predictors of response to chemotherapy such as ER-negative status and high nuclear grade. However, in contrast to these predictors that are not treatment regimen-specific, low Tau may predict extreme sensitivity to a particular drug, paclitaxel. Since Tau is a microtubule associated protein, Tau has a mechanistic role in determining cellular response to paclitaxel, which is a microtubule poison.
The inventors have validated this association at the protein level on an independent set of patients (n=122) using immunohistochemistry. […] Tau partially protects cells from paclitaxel induced apoptosis by reducing paclitaxel binding to tubulin and reducing paclitaxel induced microtubule polymerization. […] As described herein, low levels of Tau mRNA expression as measured by, but not limited to, cDNA microarrays or Tau protein expression detected by immunohistochemistry, are associated with higher rates of pathologic CR to T/FAC pre-operative chemotherapy for stage I-III breast cancer. […] Pathologic CR in this context means complete eradication of the invasive cancer from the breast and lymph nodes by chemotherapy and has consistently been associated with excellent long-term survival that is independent of other tumor characteristics.

Experiment [2] has as its system ER-positive breast cancer. As to the kind of experiment: 5 years of adjuvant tamoxifen in patients with ER-positive breast cancer: distant relapse. Format: in vivo, human. The settings on record: for 10-year distant metastasis-free survival: adjuvant tamoxifen.
Method: To examine the value of Tau as predictor of survival after 5 years of adjuvant tamoxifen therapy, we used data provided by the Institut Jules Bordet. This included gene expression and survival data on 267 patients with ER-positive tumors treated with adjuvant tamoxifen. […] In all data sets, ER-status was determined from routine pathological assessment including immunohistochemistry or ER-ligand-binding assay for the older specimens. The cut-off for ER-positivity was 10 fmol/mg protein or >10% positive cells by immunohistochemistry.
This test was used because of the non-normal distribution of Tau. The prognostic value of Tau in untreated and tamoxifen-treated patients was assessed by examining the association between Tau expression and the occurrence of distant metastases using the Wilcoxon test. To assess if covariates including grade, tumor size and nodal status were associated with Tau levels we performed multivariate linear regression analysis. Kaplan-Meier survival curves were compared using the Log-rank test. In order to generate Kaplan-Meier curves, patients had to be assigned to various Tau expression groups. However, no cut off points have been established previously to assign low or high Tau status to cases based on microarray results. Furthermore, normalized expression values differed between the data sets, particularly for the prognostic data set that used different normalization procedure. In the absence of accepted cut off values and considering the non-normal expression distribution of Tau, we grouped patients by tertiles and quartiles.
Setting [3] is: Tamoxifen treated group (n = 267).

In the case of `COc1cccc2c1C(=O)c1c(O)c3c(c(O)c1C2=O)C[C@@](O)(C(=O)CO)C[C@@H]3O[C@H]1C[C@H](N)[C@@H](O)[C@H](C)O1` [epirubicin], the “change of sensitivity to the drug on down regulation of Tau with siRNA” value in experiment [1] is on record as “not to epirubicin”.
Consider `CC(=O)O[C@H]1C(=O)[C@@]2(C)[C@H]([C@H](OC(=O)c3ccccc3)[C@]3(O)C[C@H](OC(=O)[C@H](O)[C@@H](NC(=O)c4ccccc4)c4ccccc4)C(C)=C1C3(C)C)[C@]1(OC(C)=O)CO[C@@H]1C[C@@H]2O` [paclitaxel], for which the “change of sensitivity to the drug on down regulation of Tau with siRNA” value in experiment [1] is recorded as “increases their sensitivity”.
In the case of `CC/C(=C(\c1ccccc1)c1ccc(OCCN(C)C)cc1)c1ccccc1` [tamoxifen], the “Metastases within 5 years: No, patients (%)” value in experiment [2] (setting [3]) is recorded as 160 (60%). For the same molecule, in experiment [2] (setting [3]), the “Metastases within 5 years: Yes, patients (%)” value is given as 38 (14%). Further, the entries for the “10-year distant metastasis-free survival” value in experiment [2] (Tau mRNA levels <183) and in experiment [2] (Tau mRNA levels >183) were 65% and 78%, respectively.

Source of the values: patent US20100178651A1, “Bifunctional Predictors of Cancer Treatment Sensitivity and Resistance” (priority 2006, published 2010).
